Data taken from patent publication US20110130437A1, “SALT FORMS OF A 6-FLUORO-1,2-DIHYDRO-2-OXO-3H-INDOL-3-YLIDENE DERIVATIVE, PROCESS FOR THEIR MANUFACTURE AND PHARMACEUTICAL COMPOSITIONS CONTAINING SAME” (BOEHRINGER INGELHEIM INTERNATIONAL GMBH, priority 2008, published 2011).
Entries after “also recorded” stand apart in the source; their conditions may differ.

How the values were obtained:
Type in all cases: physicochemical
[1] = Thermal gravimetry (TG) loss of weight; details: for loss of weight as measured by thermal gravimetry (TG): crystalline salt forms
Protocol: The crystalline form of the monohydrochloride salt according to the invention is further characterised by a weight loss of ca. 1.6-1.8% water up to 130° C., as determined by Thermal […]). Under standard conditions, the monohydrochloride salt form of the compound according to the invention is present in the form of the hemihydrate, from which water escapes at a temperature of about 130° C. The TG diagram is also depicted in FIG. 1. For example, the sodium and tartrate salt forms have less good crystallinity properties, which affects the stability of the drug substance. […] Thus, the chloride, succinate and bromide salt forms have unexpectedly better crystalline properties for pharmaceutical development than the sodium and tartrate salt forms.

[2] = Intrinsic dissolution rate
Source text: (§1) Furthermore, although all the above mentioned salt forms are characterized by a low solubility over almost the whole pH range, the chloride salt form presents the advantage of a better dissolution rate.

[3] = Solubility in aqueous media over the pH range; details: over a wide pH-range
Source text: as §1

[4] = Hygroscopicity of the salt forms; details: for hygroscopicity: in words, judged from TG loss of weight
Source text: The monohydrochloride salt form of the compound according to the invention, namely 4-[(Z)-[[4-[(dimethylamino)methyl]phenyl]amino](6-fluoro-1,2-dihydro-2-oxo-3H-indol-3-ylidene)methyl]-benzenepropanoic acid monohydrochloride, is a yellow crystalline powder with irregular shaped crystals. […] For example, the sodium and tartrate salt forms have less good crystallinity properties, which affects the stability of the drug substance. […] Thus, the chloride, succinate and bromide salt forms have unexpectedly better crystalline properties for pharmaceutical development than the sodium and tartrate salt forms.

[5] = Crystallinity after intensive milling or compression
Source text: The monohydrochloride salt form of the compound according to the invention, namely 4-[(Z)-[[4-[(dimethylamino)methyl]phenyl]amino](6-fluoro-1,2-dihydro-2-oxo-3H-indol-3-ylidene)methyl]-benzenepropanoic acid monohydrochloride, is a yellow crystalline powder with irregular shaped crystals.

CN(C)Cc1ccc(N/C(=C2\C(=O)Nc3cc(F)ccc32)c2ccc(CCC(=O)O)cc2)cc1 [bromide, 4-[(Z)-[[4-[(dimethylamino)methyl]phenyl]amino](6-fluoro-1,2-dihydro-2-oxo-3H-indol-3-ylidene)methyl]-benzenepropanoic acid]
loss of weight as measured by thermal gravimetry (TG) [1]: ca. 2.2%
intrinsic dissolution rate [2]: very slow
solubility in aqueous media [3]: rather low solubility
hygroscopicity [4]: slight hygroscopicity

CN(C)Cc1ccc(N/C(=C2\C(=O)Nc3cc(F)ccc32)c2ccc(CCC(=O)O)cc2)cc1.Cl [monohydrochloride, 4-[(Z)-[[4-[(dimethylamino)methyl]phenyl]amino](6-fluoro-1,2-dihydro-2-oxo-3H-indol-3-ylidene)methyl]-benzenepropanoic acid monohydrochloride]
loss of weight as measured by thermal gravimetry (TG) [1]: ca. 1.7%
weight loss of water, determined by Thermal Gravimetry (TG) ([1]; up to 130° C., crystalline form): 1.6-1.8%
change in crystallinity [5]: No significant change in crystallinity
intrinsic dissolution rate [2]: acceptable fast
solubility in aqueous media [3]: rather low solubility
hygroscopicity ([4]; listed as monohydrochloride salt form, monohydrochloride): slightly hygroscopic; also recorded: slight hygroscopicity
hygroscopicity ([4]; monohydrochloride): slight hygroscopicity
change in crystal modification ([4]; on moisture uptake (slightly hygroscopic)): no change in crystal modification is observed

CN(C)Cc1ccc(N/C(=C2\C(=O)Nc3cc(F)ccc32)c2ccc(CCC(=O)O)cc2)cc1 [sodium, 4-[(Z)-[[4-[(dimethylamino)methyl]phenyl]amino](6-fluoro-1,2-dihydro-2-oxo-3H-indol-3-ylidene)methyl]-benzenepropanoic acid]
loss of weight as measured by thermal gravimetry (TG) [1]: ca. 15%
hygroscopicity [4]: strong hygroscopicity

CN(C)Cc1ccc(N/C(=C2\C(=O)Nc3cc(F)ccc32)c2ccc(CCC(=O)O)cc2)cc1 [succinate, 4-[(Z)-[[4-[(dimethylamino)methyl]phenyl]amino](6-fluoro-1,2-dihydro-2-oxo-3H-indol-3-ylidene)methyl]-benzenepropanoic acid]
loss of weight as measured by thermal gravimetry (TG) [1]: ca. 1.5%
intrinsic dissolution rate [2]: very slow
solubility in aqueous media [3]: rather low solubility
hygroscopicity [4]: slight hygroscopicity

CN(C)Cc1ccc(N/C(=C2\C(=O)Nc3cc(F)ccc32)c2ccc(CCC(=O)O)cc2)cc1 [tartrate, 4-[(Z)-[[4-[(dimethylamino)methyl]phenyl]amino](6-fluoro-1,2-dihydro-2-oxo-3H-indol-3-ylidene)methyl]-benzenepropanoic acid]
loss of weight as measured by thermal gravimetry (TG) [1]: ca. 4.3%
hygroscopicity [4]: strong hygroscopicity
